The assay deals with Pseudomonas aeruginosa. Description: MIC/FIC determination of SNP alone and in combination with antimicrobial agents (96-well microtiter plate, OD 670 nm). Type of assay: cell-based, Pseudomonas aeruginosa ATCC 27853. The procedure: A few colonies of Pseudomonas aerugionsa ATCC 27853 were removed from secondary working cultures plated on Trypticase Soy Agar (hereinafter “TSA”) with 5% sheep's blood and added to 10 ml of Trypticase Soy Broth (hereinafter “TSB”). The vials were vortexed for approximately 30 seconds and incubated for 4 hours in a shaker incubator. Following incubation, they were removed and vortexed once more. The optical densities of the inoculum suspensions were read at a wavelength of 670 nm. The inoculum suspensions were subsequently diluted in sterile Cation Adjusted Mueller-Hinton Broth (hereinafter “CAMHB”) to a final concentration of 1-5×10^6 cfu/ml.
SNP was dissolved and diluted in sterile deionized water to get working concentrations of 1%, 0.9%, 0.8%, 0.7%, 0.6%, 0.5%, 0.4%, 0.3%, 0.2%, and 0.1% in the wells of a 96-well micro titer plate.
Chlorhexidine diacetate (hereinafter “CHA”) and gentian violet (hereinafter “GV”) were dissolved in sterile water. Rifampin (hereinafter “Rif”) was dissolved in dimethylsulfoxide (hereinafter “DMSO”). Silver nano particles were dispersed in sterile water.
A sterile 96 well micro titer plate was used to test the following: SNP alone and SNP in combination with CHA, GV, Rif, and Silver at concentrations as stated above. All tests were performed in triplicate.
Once all test wells had been filled, the lid of the plate was replaced and the plate was inserted into a Ziplock™ bag and sealed to reduce evaporation. Each plate was incubated without shaking at 37° C. for 18-46 hours depending on the microorganism.
After the appropriate incubation time had been met, the micro titer plate was removed from the incubator. The plate was then read on a Bio-Tek plate reader at a wavelength of 670 nm with the lid off.

Data on four compounds can be found in patent US20160331871A1, “Medical Devices Containing Nitroprusside and Antimicrobial Agents” (Teleflex Medical Incorporated, priority 2009, published 2016).

Consider `CC(=O)O.CC(=O)O.NC(=N\CCCCCC/N=C(N)/N=C(\N)Nc1ccc(Cl)cc1)/N=C(\N)Nc1ccc(Cl)cc1` [CHA, Chlorhexidine diacetate], for which the “inhibitory concentration in combination with SNP as compared to alone” value (“inhibitory concentration … compared to alone” for short) is given as “lower inhibitory concentrations”.

For the compound `CN(C)c1ccc(C(=C2C=CC(=[N+](C)C)C=C2)c2ccc(N(C)C)cc2)cc1` [GV, gentian violet], the “inhibitory concentration … compared to alone” value was “lower inhibitory concentrations”. Besides, the MIC/FIC (SNP 0% (agent alone)) is on record as 32 PPM. Also, the MIC/FIC (in combination with SNP 0.2%) is listed as 4 PPM. Moreover, the MIC/FIC (in combination with SNP 0.4%) came to 4 PPM. Besides, the MIC/FIC (in combination with SNP 0.6%) was found to be 0 PPM.

Turning to `CO[C@H]1/C=C/O[C@@]2(C)Oc3c(C)c(O)c4c(O)c(c(/C=N/N5CCN(C)CC5)c(O)c4c3C2=O)NC(=O)/C(C)=C\C=C\[C@H](C)[C@H](O)[C@@H](C)[C@@H](O)[C@@H](C)[C@H](OC(C)=O)[C@@H]1C` [Rifampin], the “inhibitory concentration … compared to alone” value was “lower inhibitory concentrations”. Further, the MIC/FIC (SNP 0% (agent alone)) is recorded as 16 PPM. Also, the MIC/FIC (in combination with SNP 0.2%) stood at 16 PPM. Further, the MIC/FIC (in combination with SNP 0.4%) is on record as 2-4 PPM. In addition, the MIC/FIC (in combination with SNP 0.6%) amounted to 0 PPM.

For the compound `N=C(NCCCCCCNC(=N)NC(=N)Nc1ccc(Cl)cc1)NC(=N)Nc1ccc(Cl)cc1.Nc1ccc(P(=O)(O)O)cc1.Nc1ccc(P(=O)(O)O)cc1` [CHP, chlorhexidine dipalmitate], the MIC/FIC amounted to 4 PPM (SNP 0% (agent alone)), 4 PPM (in combination with SNP 0.2%), 1 PPM (in combination with SNP 0.4%) and 0 PPM (in combination with SNP 0.6%).
